Experimental data: ChEMBL document CHEMBL4819123, “Pulchinenosides: Correlation of surface activity-cytotoxicity and hepatocyte apoptosis mechanism study” (Bioorg Med Chem Lett, 2021)

How the values were obtained:
[1] = Hemolytic activity in rabbit erythrocytes; type: ADME, cell-based, Oryctolagus cuniculus, Erythrocyte; conditions: read-out: HD50 (the source's name)
L02 [2] = experiment: Cytotoxicity against human L02 cells by MTT assay; type: cell-based
L02 [3] = experiment: Induction of apoptosis in human L02 cells assessed as early apoptotic cells at 18 uM by annexin-V-FITC/PI staining based flow cytometry analysis (reference value: 3.81 %); type: cell-based; conditions: l02, 18 µM
L02 [4] = experiment: Induction of apoptosis in human L02 cells assessed as late apoptotic cells at 18 uM by annexin-V-FITC/PI staining based flow cytometry analysis (reference value: 0.92 %); type: cell-based; conditions: l02, 18 µM
L02 [5] = experiment: Induction of apoptosis in human L02 cells assessed as early apoptotic cells at 24 uM by annexin-V-FITC/PI staining based flow cytometry analysis (reference value: 3.81 %); type: cell-based; conditions: l02, 24 µM
L02 [6] = experiment: Induction of apoptosis in human L02 cells assessed as late apoptotic cells at 24 uM by annexin-V-FITC/PI staining based flow cytometry analysis (reference value: 0.92 %); type: cell-based; conditions: l02, 24 µM
L02 [7] = experiment: Induction of apoptosis in human L02 cells assessed as early apoptotic cells at 26 uM by annexin-V-FITC/PI staining based flow cytometry analysis (reference value: 3.81 %); type: cell-based; conditions: l02, 26 µM
L02 [8] = experiment: Induction of apoptosis in human L02 cells assessed as late apoptotic cells at 26 uM by annexin-V-FITC/PI staining based flow cytometry analysis (reference value: 0.92 %); type: cell-based; conditions: l02, 26 µM
L02 [9] = experiment: Induction of cell cycle arrest in human L02 cells assessed as G0/G1 phase accumulation at 18 uM by PI staining based flow cytometry analysis (reference value: 53.77 %); conditions: l02, 18 µM
L02 [10] = experiment: Induction of cell cycle arrest in human L02 cells assessed as S phase accumulation at 18 uM by PI staining based flow cytometry analysis (reference value: 38.23 %); conditions: l02, 18 µM
L02 [11] = experiment: Induction of cell cycle arrest in human L02 cells assessed as G2/M phase accumulation at 18 uM by PI staining based flow cytometry analysis (reference value: 8 %); conditions: l02, 18 µM
L02 [12] = experiment: Induction of cell cycle arrest in human L02 cells assessed as G0/G1 phase accumulation at 24 uM by PI staining based flow cytometry analysis (reference value: 53.77 %); conditions: l02, 24 µM
L02 [13] = experiment: Induction of cell cycle arrest in human L02 cells assessed as S phase accumulation at 24 uM by PI staining based flow cytometry analysis (reference value: 38.23 %); conditions: l02, 24 µM
L02 [14] = experiment: Induction of cell cycle arrest in human L02 cells assessed as G2/M phase accumulation at 24 uM by PI staining based flow cytometry analysis (reference value: 8 %); conditions: l02, 24 µM
L02 [15] = experiment: Induction of cell cycle arrest in human L02 cells assessed as G0/G1 phase accumulation at 26 uM by PI staining based flow cytometry analysis (reference value: 53.77 %); conditions: l02, 26 µM
L02 [16] = experiment: Induction of cell cycle arrest in human L02 cells assessed as S phase accumulation at 26 uM by PI staining based flow cytometry analysis (reference value: 38.23 %); conditions: l02, 26 µM
L02 [17] = experiment: Induction of cell cycle arrest in human L02 cells assessed as G2/M phase accumulation at 26 uM by PI staining based flow cytometry analysis (reference value: 8 %); conditions: l02, 26 µM
L02 [18] = experiment: Cytotoxicity against human L02 cells assessed as increase in LDH leakage by LDH assay; type: cell-based
[19] = Oil-water partition coefficient, logP of compound; type: physicochemical
L02 [20] = experiment: Induction of apoptosis in human L02 cells assessed as early apoptotic cells at 6 uM by annexin-V-FITC/PI staining based flow cytometry analysis (reference value: 3.81 %); type: cell-based; conditions: l02, 6 µM
L02 [21] = experiment: Induction of apoptosis in human L02 cells assessed as late apoptotic cells at 6 uM by annexin-V-FITC/PI staining based flow cytometry analysis (reference value: 0.92 %); type: cell-based; conditions: l02, 6 µM
L02 [22] = experiment: Induction of apoptosis in human L02 cells assessed as early apoptotic cells at 8 uM by annexin-V-FITC/PI staining based flow cytometry analysis (reference value: 3.81 %); type: cell-based; conditions: l02, 8 µM
L02 [23] = experiment: Induction of apoptosis in human L02 cells assessed as late apoptotic cells at 8 uM by annexin-V-FITC/PI staining based flow cytometry analysis (reference value: 0.92 %); type: cell-based; conditions: l02, 8 µM
L02 [24] = experiment: Induction of apoptosis in human L02 cells assessed as early apoptotic cells at 10 uM by annexin-V-FITC/PI staining based flow cytometry analysis (reference value: 3.81 %); type: cell-based; conditions: l02, 10 µM
L02 [25] = experiment: Induction of apoptosis in human L02 cells assessed as late apoptotic cells at 10 uM by annexin-V-FITC/PI staining based flow cytometry analysis (reference value: 0.92 %); type: cell-based; conditions: l02, 10 µM
L02 [26] = experiment: Induction of cell cycle arrest in human L02 cells assessed as G0/G1 phase accumulation at 6 uM by PI staining based flow cytometry analysis (reference value: 53.77 %); conditions: l02, 6 µM
L02 [27] = experiment: Induction of cell cycle arrest in human L02 cells assessed as S phase accumulation at 6 uM by PI staining based flow cytometry analysis (reference value: 38.23 %); conditions: l02, 6 µM
L02 [28] = experiment: Induction of cell cycle arrest in human L02 cells assessed as G2/M phase accumulation at 6 uM by PI staining based flow cytometry analysis (reference value: 8 %); conditions: l02, 6 µM
L02 [29] = experiment: Induction of cell cycle arrest in human L02 cells assessed as G0/G1 phase accumulation at 8 uM by PI staining based flow cytometry analysis (reference value: 53.77 %); conditions: l02, 8 µM
L02 [30] = experiment: Induction of cell cycle arrest in human L02 cells assessed as S phase accumulation at 8 uM by PI staining based flow cytometry analysis (reference value: 38.23 %); conditions: l02, 8 µM
L02 [31] = experiment: Induction of cell cycle arrest in human L02 cells assessed as G2/M phase accumulation at 8 uM by PI staining based flow cytometry analysis (reference value: 8 %); conditions: l02, 8 µM
L02 [32] = experiment: Induction of cell cycle arrest in human L02 cells assessed as G0/G1 phase accumulation at 10 uM by PI staining based flow cytometry analysis (reference value: 53.77 %); conditions: l02, 10 µM
L02 [33] = experiment: Induction of cell cycle arrest in human L02 cells assessed as S phase accumulation at 10 uM by PI staining based flow cytometry analysis (reference value: 38.23 %); conditions: l02, 10 µM
L02 [34] = experiment: Induction of cell cycle arrest in human L02 cells assessed as G2/M phase accumulation at 10 uM by PI staining based flow cytometry analysis (reference value: 8 %); conditions: l02, 10 µM
L02 [35] = experiment: Induction of apoptosis in human L02 cells assessed as decrease in ratio of Bcl-2/Bax at 8 to 12 ug/ml measured after 24 hrs by Western blot analysis; type: cell-based; conditions: l02, 24 h, dose 8-12 µg/ml
L02 [36] = experiment: Induction of apoptosis in human L02 cells assessed as upregulation of FAS expression at 8 to 12 ug/ml measured after 24 hrs by Western blot analysis; type: cell-based; conditions: l02, 24 h, dose 8-12 µg/ml
L02 [37] = experiment: Induction of apoptosis in human L02 cells assessed as decrease in caspase 8 level at 8 to 12 ug/ml measured after 24 hrs by Western blot analysis; type: cell-based; conditions: l02, 24 h, dose 8-12 µg/ml
L02 [38] = experiment: Induction of apoptosis in human L02 cells assessed as decrease in caspase 9 level at 8 to 12 ug/ml measured after 24 hrs by Western blot analysis; type: cell-based; conditions: l02, 24 h, dose 8-12 µg/ml
L02 [39] = experiment: Induction of apoptosis in human L02 cells assessed as increase in cleaved caspase 8 level at 8 to 12 ug/ml measured after 24 hrs by Western blot analysis; type: cell-based; conditions: l02, 24 h, dose 8-12 µg/ml

Row | logP [19] | SMILES | HC50 [1] [µM] | IC50 (L02 [2]) [µM] | Activity (L02 [3]) [%] | Activity (L02 [4]) [%] | Activity (L02 [5]) [%] | Activity (L02 [6]) [%] | Activity (L02 [7]) [%] | Activity (L02 [8]) [%] | Activity (L02 [9]) [%] | Activity (L02 [10]) [%] | Activity (L02 [11]) [%] | Activity (L02 [12]) [%] | Activity (L02 [13]) [%] | Activity (L02 [14]) [%] | Activity (L02 [15]) [%] | Activity (L02 [16]) [%] | Activity (L02 [17]) [%] | Activity (L02 [18]) | further results
1 | 0.0406 | C[C@@H]1O[C@@H](O[C@H]2[C@H](O[C@H]3CC[C@]4(C)[C@H]5CC=C6[C@@H]7CC(C)(C)CC[C@]7(C(=O)O)CC[C@@]6(C)[C@]5(C)CC[C@H]4C3(C)C)OC[C@H](O[C@@H]3O[C@H](CO)[C@@H](O)[C@H](O)[C@H]3O)[C@@H]2O)[C@H](O)[C@H](O)[C@H]1O [HEDERACOLCHISIDE A1] | 3.24 | 7.13 | – | – | – | – | – | – | – | – | – | – | – | – | – | – | – | Toxic | Activity (L02 [20]): 4.59%; Activity (L02 [21]): 3.11%; Activity (L02 [22]): 17.6%; Activity (L02 [23]): 38.6%; Activity (L02 [24]): 3.51%; Activity (L02 [25]): 94.1%; Activity (L02 [26]): 62.05%; Activity (L02 [27]): 29.95%; Activity (L02 [28]): 8%; Activity (L02 [29]): 67.33%; Activity (L02 [30]): 32.66%; Activity (L02 [31]): 2%; Activity (L02 [32]): 39.69%; Activity (L02 [33]): 58.44%; Activity (L02 [34]): 1.88%; Activity (L02 [35]): Toxic; Activity (L02 [36]): Toxic; Activity (L02 [37]): Toxic; Activity (L02 [38]): Toxic; Activity (L02 [39]): Toxic
2 | 0.115 | C[C@@H]1O[C@@H](O[C@H]2[C@H](O[C@H]3CC[C@@]4(C)[C@@H](CC[C@]5(C)[C@@H]4CC=C4[C@@H]6CC(C)(C)CC[C@]6(C(=O)O)CC[C@]45C)[C@]3(C)CO)OC[C@H](O[C@@H]3O[C@H](CO)[C@@H](O)[C@H](O)[C@H]3O)[C@@H]2O)[C@H](O)[C@H](O)[C@H]1O [HEDERACOLCHISIDE A] | 6.83 | 21.1 | 13.7 | 4.61 | 15.9 | 10.3 | 2.2 | 94.9 | 58.3 | 40.23 | 1.47 | 7.96 | 30.41 | 61.63 | 61.72 | 30.28 | 8 | Toxic | –

Row | SMILES | logP [19] | HC50 [1] [µM] | IC50 (L02 [2]) [µM] | Activity (L02 [3]) [%] | Activity (L02 [4]) [%] | Activity (L02 [5]) [%] | Activity (L02 [6]) [%] | Activity (L02 [7]) [%] | Activity (L02 [8]) [%] | Activity (L02 [9]) [%] | Activity (L02 [10]) [%] | Activity (L02 [11]) [%] | Activity (L02 [12]) [%] | Activity (L02 [13]) [%] | Activity (L02 [14]) [%] | Activity (L02 [15]) [%] | Activity (L02 [16]) [%] | Activity (L02 [17]) [%] | Activity (L02 [18]) | further results
3 | C[C@@H]1O[C@@H](O[C@H]2[C@H](O[C@H]3CC[C@@]4(C)[C@@H](CC[C@]5(C)[C@@H]4CC=C4[C@@H]6CC(C)(C)CC[C@]6(C(=O)O)CC[C@]45C)[C@]3(C)CO)OC[C@H](O)[C@@H]2O)[C@H](O)[C@H](O)[C@H]1O [ALPHA-HEDERIN] | 0.0672 | 9.04 | 21 | 16.84 | 8.18 | 17 | 15.5 | 1.98 | 94.2 | 61 | 31 | 8 | 59.52 | 32.48 | 8 | 52.42 | 40.88 | 6.72 | Toxic | –
